Test results: patent publication US10959968B2, “Methods for treating c-Met-dependent cancers” (Board of Supervisors of Louisiana State University and …, priority 2016, dated 2021)
Entries after “also recorded” stand apart in the source; their conditions may differ.

Tests used:
[1] = system: DU145 human prostate cancer cells; assay: Cell scattering in 2D monolayer cultures; assay type: cell-based; settings: 16 h, listed as HVS
Procedure: (§1) FIG. 6. (A) Effect of HVS on HGF-induced migration of the highly metastatic MDA-MB-231 human breast cancer cells in wound healing assay. […] Vertical bars indicate the percentage of wound closure at 24 h after wounding, calculated relative to the wound distance at zero time±SEM of N=6 in each treatment group. SU11274 and (−)-oleocanthal were used as positive controls at 10 μM. Right panel represents photomicrographs of wound healing assay showing HVS treatment at three different concentrations (1.25, 2.5, and 5 μM) blocked the migration of MDA-MB-231 cells in response to HGF stimulation, as compared to DMSO as a vehicle control. (B) Effect of HVS on HGF-induced cell invasion of the highly aggressive MDA-MB-231 human breast cancer cells using Cultrex® BME cell invasion assay. The cells were treated with different concentrations of HVS for 24 h. Vertical bars indicate the percentage of cells invading the basement membrane at the end of treatment period±SEM of N=3 in each treatment group. (−)-Oleocanthal was used as a positive control at 20 μM dose.*P<0.05 as compared with vehicle-treated control. (C) Effect of HVS on HGF-induced scattering of the DU145 human prostate cancer cells in 2D monolayer cultures, compared to DMSO as vehicle control. Cells were treated with indicated concentrations of HVS for 30 minutes in serum-free media. […]

[2] = system: MDA-MB-231 human breast cancer cells; assay: Wound healing assay, HGF-induced migration; assay type: cell-based; settings: wound closure at 24 h
Procedure: as §1

[3] = system: MDA-MB231 spheroids; assay: 3D spheroid growth, IncuCyte; assay type: cell-based, human; settings: Homo sapiens, MDA-MB-231, 10 micromolar, up to 72 hours
Procedure: FIG. 9. (A). MDA-MB231 cells were grown in 10% FBS DMEM. Cells were collected after trypsinization and resuspended in phenol-red free DMEM with 10% FBS. Cells were labeled with CellTracker Red (Life Technologies) for 5 minutes. After labeling cells were washed with PBS and transfer into 96-well Corning 7007 ULA round bottom plates at 1,000 cells/well in 100 μl phenol-red free media with 10% FBS and 5% Matrigel. […] Spheroids were grown at 37° C. and 5% CO2 in IncuCyte ZOOM (Essen Bioscience). Images were acquired every 4 h for a period of 72 h post-treatment. The data were expressed as fold increase in spheroids size at the end of the treatment using the “average red object area in the well” as determined by the IncuCyte software analysis.
MDA-MB231 spheroids were all allowed to form and treated with compounds for up to 72 hours. Images were captured using the Incucyte platform.

[4] = system: MDA-MB-231 breast cancer cells; assay: Western blot of c-Met downstream mitogenic and FAK/Brk/paxillin/Rac1 signaling; assay type: cell-based, human
Procedure: FIG. 5. Effects of HVS treatment on c-Met downstream mitogenic and FAK/Brk/paxillin/Rac1 signaling pathways in human MDA-MB-231 breast cancer cells after a treatment period of 72 h. (A) Western Blot analysis showing HVS treatment effects on c-Met downstream mitogenic signaling molecules, Akt and MAPK, using different treatment doses, compared to the vehicle-treated control group. (B) Western Blot analysis showing HVS treatment effects on FAK/Brk/Paxillin/Rac1 signaling pathway using different treatment doses, compared to the vehicle-treated control group. The visualization of β-tubulin was used as a loading control. Representative Western Blots from each experiment are shown, N=3.
On the other hand, HVS had little or no effects on the total levels of FAK, Brk, paxillin, and Rac1 in treated cells. Exposure to antiproliferative concentrations of 8 blocked HGF-induced phosphorylation and activation of Akt and MAPK in MDA-MB-231 mammary cancer cells (FIG. 5). Activation of c-Met prevents apoptosis and maintains cancer cell survival through activation of PI3K and subsequent Akt-NFκB activation.

[5] = system: MDA-MB-231 human breast cancer cells; assay: Cultrex BME cell invasion assay, HGF-induced; assay type: cell-based; settings: 24 h treatment
Procedure: as §1

[6] = system: MDA-MB-231 breast cancer cells; assay: LDH cytotoxicity assay; assay type: cell-based, human; settings: MDA-MB-231 cells; 50 μM and 100 μM
Procedure: FIG. 3. (A) Effect of HVS treatment on HGF-stimulated growth of Met-dependent MDA-MB-231, MDA-MB-468, MCF-7. and BT-474 breast cancer cells after 72 h treatment period, compared to DMSO as vehicle control. Viable cell count was determined using MTT assay. Vertical bars indicate the mean cell count±SEM of N=3 in each treatment group; (−)-oleocanthal was used as a positive control at 20 μM. (B) Effect of HVS treatment on HGF-stimulated growth of Met-independent T-47D breast cancer cells after 72 h treatment period. Viable cell count was determined using MTT assay. Vertical bars indicate the mean cell count±SEM of N=3 in each treatment group. […] Triton X-100 was used as a positive control to cause the breakdown of all the cells and induce the total possible LDH release. (D) Effects of HVS treatment on the viability of non-tumorigenic human MCF10A mammary epithelial cells after a 24 h treatment period, compared to DMSO as vehicle control. (E) As in panel (A) but without HGF. […] Viable cell count was determined using MTT assay. Vertical bars indicate the mean cell count±SEM of N=3 in each treatment group; doxorubicin was used as a positive control at 10 μM dose. *P<0.05 as compared with vehicle treated control.
[…]. Selection of the aforementioned breast cancer cells was based on their phenotypes. […]

[7] = molecular target: MST1R (RON0 (Homo sapiens, UniProt Q04912)); assay: SelectScreen Kinase Profiling; assay type: biochemical; settings: read-out: Mean inhibition at 10 μM of HVS (%)
Chain of MST1R (RON0 (Q04912 25-1400): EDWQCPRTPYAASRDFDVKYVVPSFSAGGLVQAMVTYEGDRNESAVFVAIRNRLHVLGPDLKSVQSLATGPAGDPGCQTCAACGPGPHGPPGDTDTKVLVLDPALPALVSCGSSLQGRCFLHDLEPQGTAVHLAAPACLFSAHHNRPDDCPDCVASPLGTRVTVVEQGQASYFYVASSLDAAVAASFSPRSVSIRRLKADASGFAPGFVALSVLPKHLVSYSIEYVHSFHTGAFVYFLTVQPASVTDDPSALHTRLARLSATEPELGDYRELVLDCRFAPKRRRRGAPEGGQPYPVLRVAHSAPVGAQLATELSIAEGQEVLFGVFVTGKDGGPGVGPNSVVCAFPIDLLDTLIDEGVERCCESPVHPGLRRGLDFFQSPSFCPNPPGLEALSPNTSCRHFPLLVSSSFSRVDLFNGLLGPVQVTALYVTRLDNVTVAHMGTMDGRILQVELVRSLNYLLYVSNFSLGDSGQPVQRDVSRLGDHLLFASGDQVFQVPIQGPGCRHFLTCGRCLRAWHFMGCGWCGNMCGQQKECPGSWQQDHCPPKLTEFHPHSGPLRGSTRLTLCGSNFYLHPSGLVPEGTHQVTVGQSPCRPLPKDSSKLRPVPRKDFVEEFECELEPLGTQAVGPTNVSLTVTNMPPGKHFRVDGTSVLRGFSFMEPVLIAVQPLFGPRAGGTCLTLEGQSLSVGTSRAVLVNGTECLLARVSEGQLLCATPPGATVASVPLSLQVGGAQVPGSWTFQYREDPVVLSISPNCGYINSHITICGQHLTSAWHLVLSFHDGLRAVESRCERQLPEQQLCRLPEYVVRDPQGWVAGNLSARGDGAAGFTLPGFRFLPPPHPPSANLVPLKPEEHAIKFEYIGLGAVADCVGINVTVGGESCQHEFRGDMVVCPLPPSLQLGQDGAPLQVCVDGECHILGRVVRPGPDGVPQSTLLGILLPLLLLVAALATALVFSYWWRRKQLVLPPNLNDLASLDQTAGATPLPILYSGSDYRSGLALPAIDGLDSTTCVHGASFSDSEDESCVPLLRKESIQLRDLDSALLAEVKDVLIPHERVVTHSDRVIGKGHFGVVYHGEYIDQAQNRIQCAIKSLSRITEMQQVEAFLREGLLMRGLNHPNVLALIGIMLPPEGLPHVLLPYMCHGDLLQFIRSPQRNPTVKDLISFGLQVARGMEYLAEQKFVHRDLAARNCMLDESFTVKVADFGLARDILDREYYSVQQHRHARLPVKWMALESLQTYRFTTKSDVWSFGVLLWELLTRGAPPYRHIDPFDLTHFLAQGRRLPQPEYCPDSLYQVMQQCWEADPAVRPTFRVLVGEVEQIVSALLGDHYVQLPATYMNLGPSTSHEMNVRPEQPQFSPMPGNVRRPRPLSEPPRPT

## COc1cc(CCOC(=O)/C=C/c2cc(OC)c(O)c(OC)c2)ccc1O [Compound 8, (E)-4-hydroxy-3-methoxyph-ethyl 3-(4-hydroxy-3,5-dimethoxyphenyl) acrylate]
[1]; 33 ng/mL HGF
  HGF-induced cell scattering: significantly reduced; also recorded: appeared to block
[1]; 100 ng/mL EGF, similar treatment doses
  EGF-induced cell scattering: do not block; also recorded: not inhibited
[2]
  HGF-induced migration: appears to inhibit
[3]
  inhibition at 10 µM: 80%
[4]; 72-h treatment
  FAK, Brk, paxillin and Rac1 phosphorylation (activation): dose-dependently suppressed
[4]; antiproliferative concentrations
  HGF-induced phosphorylation and activation of Akt and MAPK: blocked
[5]
  HGF-induced invasion: appears to inhibit
[6]
  LDH release: minimal LDH release
[7]
  inhibition at 10 µM: 15%
